HELM strings list units from the 5' end as sugar, base in round brackets, then linkage (d deoxyribose, r ribose, m 2'-O-methyl, p phosphodiester). Strings are as the collection lists them; they lack the last nucleoside at the 3' end of the tested compound. [moe] = 2'-O-(2-methoxyethyl) (MOE); [sp] = phosphorothioate linkage; [m5C] = 5-methylcytosine
Target: C9ORF72
Assay: mouse, dose not given
Conditions: ASO

Substance | 3 h FOB score [score 0-7]
RNA1{[moe](A)[sp].[moe](A)[sp].[moe](T)[sp].[moe]([m5C])[sp].[moe](T)[sp].d(T)[sp].d(T)[sp].d(A)[sp].d(T)[sp].d([m5C])[sp].d(A)[sp].d(G)[sp].d(G)[sp].d(T)[sp].d([m5C])[sp].[moe](T)[sp].[moe](T)[sp].[moe](T)[sp].[moe](T)}$$$$ (last 3' nucleoside missing) | 6.5
RNA1{[moe](A)[sp].[moe](G)p.[moe](G)p.[moe]([m5C])[sp].d(T)[sp].d(G)[sp].d([m5C])[sp].d(G)[sp].d(G)[sp].d(T)[sp].d(T)[sp].d(G)[sp].[moe](T)p.[moe](T)p.[moe](T)p.[moe]([m5C])[sp].[moe]([m5C])}$$$$ (last 3' nucleoside missing) | 7
RNA1{[moe](A)[sp].[moe](G)p.[moe](G)p.[moe]([m5C])p.[moe](T)p.[moe](G)[sp].d([m5C])[sp].d(G)[sp].d(G)[sp].d(T)[sp].d(T)[sp].d(G)[sp].d(T)[sp].d(T)[sp].[moe](T)p.[moe]([m5C])[sp].[moe]([m5C])}$$$$ (last 3' nucleoside missing) | 5.25
RNA1{[moe](A)[sp].[moe](G)p.[moe](G)p.[moe]([m5C])p.[moe](T)p.[moe](G)p.d([m5C])[sp].d(G)[sp].d(G)[sp].d(T)[sp].d(T)[sp].d(G)[sp].d(T)[sp].d(T)[sp].d(T)[sp].[moe]([m5C])p.[moe]([m5C])[sp].[moe]([m5C])}$$$$ (last 3' nucleoside missing) | 6
RNA1{[moe](A)[sp].[moe](G)p.[moe](G)p.[moe]([m5C])p.[moe](T)p.[moe](G)p.d([m5C])[sp].d(G)[sp].d(G)[sp].d(T)[sp].d(T)[sp].d(G)[sp].d(T)[sp].d(T)[sp].d(T)[sp].d([m5C])[sp].[moe]([m5C])p.[moe]([m5C])[sp].[moe](T)}$$$$ (last 3' nucleoside missing) | 4
RNA1{[moe](A)[sp].[moe](G)p.[moe](G)p.[moe]([m5C])p.[moe](T)p.d(G)[sp].d([m5C])[sp].d(G)[sp].d(G)[sp].d(T)[sp].d(T)[sp].d(G)[sp].d(T)[sp].d(T)[sp].[moe](T)p.[moe]([m5C])p.[moe]([m5C])[sp].[moe]([m5C])}$$$$ (last 3' nucleoside missing) | 6.25
RNA1{[moe](A)[sp].[moe](G)p.[moe](G)p.[moe]([m5C])p.d(T)[sp].d(G)[sp].d([m5C])[sp].d(G)[sp].d(G)[sp].d(T)[sp].d(T)[sp].d(G)[sp].d(T)[sp].[moe](T)p.[moe](T)p.[moe]([m5C])p.[moe]([m5C])[sp].[moe]([m5C])}$$$$ (last 3' nucleoside missing) | 6.5
RNA1{[moe](A)[sp].[moe](G)p.[moe](G)p.[moe]([m5C])p.d(T)[sp].d(G)[sp].d([m5C])[sp].d(G)[sp].d(G)[sp].d(T)[sp].d(T)[sp].d(G)[sp].d(T)[sp].d(T)[sp].[moe](T)p.[moe]([m5C])p.[moe]([m5C])p.[moe]([m5C])[sp].[moe](T)}$$$$ (last 3' nucleoside missing) | 6.25
RNA1{[moe](G)[sp].[moe](G)[sp].[moe](G)[sp].[moe](A)[sp].[moe]([m5C])[sp].d(A)[sp].d([m5C])[sp].d(T)[sp].d(A)[sp].d([m5C])[sp].d(A)[sp].d(A)[sp].d(G)[sp].d(G)[sp].d(T)[sp].[moe](A)[sp].[moe](G)[sp].[moe](T)[sp].[moe](A)}$$$$ (last 3' nucleoside missing) | 5.67
RNA1{[moe](G)[sp].[moe](G)[sp].[moe](T)[sp].[moe](A)[sp].[moe](A)[sp].d([m5C])[sp].d(T)[sp].d(T)[sp].d([m5C])[sp].d(A)[sp].d(A)[sp].d(A)[sp].d([m5C])[sp].d(T)[sp].d([m5C])[sp].[moe](T)[sp].[moe](T)[sp].[moe](G)[sp].[moe](G)}$$$$ (last 3' nucleoside missing) | 7
RNA1{[moe](G)[sp].[moe](G)p.[moe](T)p.[moe](T)[sp].d(A)[sp].d(A)[sp].d(T)[sp].d([m5C])[sp].d(T)[sp].d(T)[sp].d(T)[sp].d(A)[sp].[moe](T)p.[moe]([m5C])p.[moe](A)p.[moe](G)[sp].[moe](G)}$$$$ (last 3' nucleoside missing) | 1
RNA1{[moe](G)[sp].[moe](G)p.[moe](T)p.[moe](T)p.[moe](A)p.[moe](A)[sp].d(T)[sp].d([m5C])[sp].d(T)[sp].d(T)[sp].d(T)[sp].d(A)[sp].d(T)[sp].d([m5C])[sp].[moe](A)p.[moe](G)[sp].[moe](G)}$$$$ (last 3' nucleoside missing) | 1.25
RNA1{[moe](G)[sp].[moe](G)p.[moe](T)p.[moe](T)p.[moe](A)p.[moe](A)p.[moe](T)p.d([m5C])[sp].d(T)[sp].d(T)[sp].d(T)[sp].d(A)[sp].d(T)[sp].d([m5C])[sp].d(A)[sp].d(G)[sp].d(G)[sp].[moe](T)[sp].[moe]([m5C])}$$$$ (last 3' nucleoside missing) | 5.75
RNA1{[moe](G)[sp].[moe](G)p.[moe](T)p.[moe](T)p.[moe](A)p.[moe](A)p.d(T)[sp].d([m5C])[sp].d(T)[sp].d(T)[sp].d(T)[sp].d(A)[sp].d(T)[sp].d([m5C])[sp].d(A)[sp].d(G)[sp].[moe](G)p.[moe](T)[sp].[moe]([m5C])}$$$$ (last 3' nucleoside missing) | 1.5
RNA1{[moe](G)[sp].[moe](G)p.[moe](T)p.[moe](T)p.d(A)[sp].d(A)[sp].d(T)[sp].d([m5C])[sp].d(T)[sp].d(T)[sp].d(T)[sp].d(A)[sp].d(T)[sp].d([m5C])[sp].[moe](A)p.[moe](G)p.[moe](G)p.[moe](T)[sp].[moe]([m5C])}$$$$ (last 3' nucleoside missing) | 0
RNA1{[moe](G)[sp].[moe](G)p.[moe](T)p.d(T)[sp].d(A)[sp].d(A)[sp].d(T)[sp].d([m5C])[sp].d(T)[sp].d(T)[sp].d(T)[sp].d(A)[sp].d(T)[sp].[moe]([m5C])p.[moe](A)p.[moe](G)p.[moe](G)p.[moe](T)[sp].[moe]([m5C])}$$$$ (last 3' nucleoside missing) | 0
RNA1{[moe](G)[sp].[moe](G)p.[moe]([m5C])p.[moe](T)[sp].d(G)[sp].d([m5C])[sp].d(G)[sp].d(G)[sp].d(T)[sp].d(T)[sp].d(G)[sp].d(T)[sp].[moe](T)p.[moe](T)p.[moe]([m5C])p.[moe]([m5C])[sp].[moe]([m5C])}$$$$ (last 3' nucleoside missing) | 6
RNA1{[moe](G)[sp].[moe](G)p.[moe]([m5C])p.[moe](T)p.[moe](G)p.[moe]([m5C])[sp].d(G)[sp].d(G)[sp].d(T)[sp].d(T)[sp].d(G)[sp].d(T)[sp].d(T)[sp].d(T)[sp].[moe]([m5C])p.[moe]([m5C])[sp].[moe]([m5C])}$$$$ (last 3' nucleoside missing) | 2.5
RNA1{[moe](G)[sp].[moe](G)p.[moe]([m5C])p.[moe](T)p.[moe](G)p.[moe]([m5C])p.d(G)[sp].d(G)[sp].d(T)[sp].d(T)[sp].d(G)[sp].d(T)[sp].d(T)[sp].d(T)[sp].d([m5C])[sp].[moe]([m5C])p.[moe]([m5C])[sp].[moe](T)}$$$$ (last 3' nucleoside missing) | 5.25
RNA1{[moe](G)[sp].[moe](G)p.[moe]([m5C])p.[moe](T)p.[moe](G)p.d([m5C])[sp].d(G)[sp].d(G)[sp].d(T)[sp].d(T)[sp].d(G)[sp].d(T)[sp].d(T)[sp].d(T)[sp].[moe]([m5C])p.[moe]([m5C])p.[moe]([m5C])[sp].[moe](T)}$$$$ (last 3' nucleoside missing) | 5.5
RNA1{[moe](G)[sp].[moe](G)p.[moe]([m5C])p.[moe](T)p.d(G)[sp].d([m5C])[sp].d(G)[sp].d(G)[sp].d(T)[sp].d(T)[sp].d(G)[sp].d(T)[sp].d(T)[sp].[moe](T)p.[moe]([m5C])p.[moe]([m5C])p.[moe]([m5C])[sp].[moe](T)}$$$$ (last 3' nucleoside missing) | 6
RNA1{[moe](G)[sp].[moe](G)p.[moe]([m5C])p.[moe]([m5C])[sp].d([m5C])[sp].d([m5C])[sp].d(T)[sp].d(A)[sp].d(G)[sp].d([m5C])[sp].d(G)[sp].d([m5C])[sp].[moe](G)p.[moe]([m5C])p.[moe](G)p.[moe](A)[sp].[moe]([m5C])}$$$$ (last 3' nucleoside missing) | 2.5
RNA1{[moe](G)[sp].[moe](G)p.[moe]([m5C])p.[moe]([m5C])p.[moe]([m5C])p.[moe]([m5C])[sp].d(T)[sp].d(A)[sp].d(G)[sp].d([m5C])[sp].d(G)[sp].d([m5C])[sp].d(G)[sp].d([m5C])[sp].[moe](G)p.[moe](A)[sp].[moe]([m5C])}$$$$ (last 3' nucleoside missing) | 3.25
RNA1{[moe](G)[sp].[moe](G)p.[moe]([m5C])p.[moe]([m5C])p.[moe]([m5C])p.[moe]([m5C])p.d(T)[sp].d(A)[sp].d(G)[sp].d([m5C])[sp].d(G)[sp].d([m5C])[sp].d(G)[sp].d([m5C])[sp].d(G)[sp].d(A)[sp].[moe]([m5C])p.[moe](T)[sp].[moe]([m5C])}$$$$ (last 3' nucleoside missing) | 1.25
RNA1{[moe](G)[sp].[moe](G)p.[moe]([m5C])p.[moe]([m5C])p.d([m5C])[sp].d([m5C])[sp].d(T)[sp].d(A)[sp].d(G)[sp].d([m5C])[sp].d(G)[sp].d([m5C])[sp].d(G)[sp].d([m5C])[sp].[moe](G)p.[moe](A)p.[moe]([m5C])p.[moe](T)[sp].[moe]([m5C])}$$$$ (last 3' nucleoside missing) | 1.5
RNA1{[moe](G)[sp].[moe](T)p.[moe](T)p.[moe](A)[sp].d(A)[sp].d(T)[sp].d([m5C])[sp].d(T)[sp].d(T)[sp].d(T)[sp].d(A)[sp].d(T)[sp].[moe]([m5C])p.[moe](A)p.[moe](G)p.[moe](G)[sp].[moe](T)}$$$$ (last 3' nucleoside missing) | 1
RNA1{[moe](G)[sp].[moe](T)p.[moe](T)p.[moe](A)p.[moe](A)p.[moe](T)[sp].d([m5C])[sp].d(T)[sp].d(T)[sp].d(T)[sp].d(A)[sp].d(T)[sp].d([m5C])[sp].d(A)[sp].[moe](G)p.[moe](G)[sp].[moe](T)}$$$$ (last 3' nucleoside missing) | 3
